Laboratory results published in patent US8802597B2, “Herbicidal pyrimidines” (E I du Pont de Nemours and Company, priority 2003, dated 2014).
Read-outs that look alike come from different tables or passages of the source.

Experiments:
Test in all cases: Test C pre/postemergence
Assay type in all cases: in vivo
[1] = system: cocklebur (Xanthium strumarium); details: Xanthium strumarium; for pest or weed control at 62 g/ha: 62 g ai/ha; for pest or weed control at 125 g/ha: 125 g ai/ha; for pest or weed control at 250 g/ha: 250 g ai/ha; for pest or weed control at 500 g/ha: 500 g ai/ha
Text: (§1) Seeds or nutlets of plant species selected from bermudagrass (Cynodon dactylon), Surinam grass (Brachiaria decumbens), cocklebur (Xanthium strumarium), corn (Zea mays), crabgrass (Digitaria sanguinalis), woolly cupgrass (Eriochloa villosa), giant foxtail (Setaria faberii), goosegrass (Eleusine indica), johnsongrass (Sorghum halepense), kochia (Kochia scoparia), lambsquarters (Chenopodium album), morningglory (Ipomoea coccinea), eastern black nightshade (Solanum ptycanthum), yellow nutsedge (Cyperus esculentus), pigweed (Amaranthus retroflexus), common ragweed (Ambrosia elatior), soybean (Glycine max), common (oilseed) sunflower (Helianthus annuus), and velvetleaf (Abutilon theophrasti) were planted and treated preemergence with test chemicals formulated in a non-phytotoxic solvent mixture which included a surfactant.
(§2) At the same time, plants selected from these crop and weed species and also winter barley (Hordeum vulgare), blackgrass (Alopecurus myosuroides), canarygrass (Phalaris minor), chickweed (Stellaria media), downy brome (Bromus tectorum), green foxtail (Setaria viridis), Italian ryegrass (Lolium multiflorum), wheat (Triticum aestivum), wild oat (Avena fatua) and windgrass (Apera spica-venti) were treated with postemergence applications of some of the test chemicals formulated in the same manner. Plants ranged in height from 2 to 18 cm (1- to 4-leaf stage) for postemergence treatments. Plant species in the flooded paddy test consisted of rice (Oryza sativa), umbrella sedge (Cyperus difformis), duck salad (Heteranthera limosa) and barnyardgrass (Echinochloa crus-galli) grown to the 2-leaf stage for testing. Treated plants and controls were maintained in a greenhouse for 12 to 14 days, after which time all species were compared to controls and visually evaluated. Plant response ratings, summarized in Table C, are based on a scale of 0 to 100 where 0 is no effect and 100 is complete control. A dash (-) response means no test result.

[2] = system: crabgrass (Digitaria sanguinalis); details: Digitaria sanguinalis; for pest or weed control at 62 g/ha: 62 g ai/ha; for pest or weed control at 125 g/ha: 125 g ai/ha; for pest or weed control at 250 g/ha: 250 g ai/ha; for pest or weed control at 500 g/ha: 500 g ai/ha
Text: as §1, §2

[3] = system: johnsongrass (Sorghum halepense); details: Sorghum halepense; for pest or weed control at 62 g/ha: 62 g ai/ha; for pest or weed control at 125 g/ha: 125 g ai/ha; for pest or weed control at 250 g/ha: 250 g ai/ha; for pest or weed control at 500 g/ha: 500 g ai/ha
Text: as §1, §2

kochia (Kochia scoparia) = details: Bassia scoparia; for pest or weed control at 62 g/ha: 62 g ai/ha; for pest or weed control at 125 g/ha: 125 g ai/ha; for pest or weed control at 250 g/ha: 250 g ai/ha; for pest or weed control at 500 g/ha: 500 g ai/ha
Text: as §1, §2

[4] = system: pigweed (Amaranthus retroflexus); details: Amaranthus retroflexus; for pest or weed control at 62 g/ha: 62 g ai/ha; for pest or weed control at 125 g/ha: 125 g ai/ha; for pest or weed control at 250 g/ha: 250 g ai/ha; for pest or weed control at 500 g/ha: 500 g ai/ha
Text: as §1, §2

[5] = post-emergence, Postemergence, scale 0 to 100 (0 no effect, 100 complete control), read-out: Cocklebur plant response rating
[6] = post-emergence, Postemergence, scale 0 to 100, read-out: Plant response rating, Cocklebur
[7] = pre-emergence, Preemergence, scale 0 to 100, 0 no effect, 100 complete control, read-out: Plant response rating, Cocklebur
[8] = pre-emergence, Preemergence, scale 0 to 100, read-out: Plant response rating, Cocklebur
[9] = post-emergence, Postemergence, scale 0 to 100 (0 no effect, 100 complete control), read-out: Crabgrass plant response rating
[10] = post-emergence, Postemergence, scale 0 to 100, read-out: Plant response rating, Crabgrass
[11] = pre-emergence, Preemergence, scale 0 to 100, 0 no effect, 100 complete control, read-out: Plant response rating, Crabgrass
[12] = pre-emergence, Preemergence, scale 0 to 100, read-out: Plant response rating, Crabgrass
[13] = post-emergence, Postemergence, scale 0 to 100 (0 no effect, 100 complete control), read-out: Johnsongrass plant response rating
[14] = post-emergence, Postemergence, scale 0 to 100, read-out: Plant response rating, Johnsongrass
[15] = pre-emergence, Preemergence, scale 0 to 100, 0 no effect, 100 complete control, read-out: Plant response rating, Johnsongrass
[16] = pre-emergence, Preemergence, scale 0 to 100, read-out: Plant response rating, Johnsongrass
[17] = post-emergence, Postemergence, scale 0 to 100 (0 no effect, 100 complete control), read-out: Kochia plant response rating
[18] = post-emergence, Postemergence, scale 0 to 100, read-out: Plant response rating, Kochia
[19] = pre-emergence, Preemergence, scale 0 to 100, 0 no effect, 100 complete control, read-out: Plant response rating, Kochia
[20] = pre-emergence, Preemergence, scale 0 to 100, read-out: Plant response rating, Kochia
[21] = post-emergence, Postemergence, scale 0 to 100 (0 no effect, 100 complete control), read-out: Pigweed plant response rating
[22] = post-emergence, Postemergence, scale 0 to 100, read-out: Plant response rating, Pigweed
[23] = pre-emergence, Preemergence, scale 0 to 100, 0 no effect, 100 complete control, read-out: Plant response rating, Pigweed
[24] = pre-emergence, Preemergence, scale 0 to 100, read-out: Plant response rating, Pigweed

SMILES	pest or weed control at 62 g/ha [1, 5] [%]	pest or weed control at 125 g/ha [1, 5] [%]	pest or weed control at 250 g/ha [1, 6] [%]	pest or weed control at 500 g/ha [1, 6] [%]	pest or weed control at 62 g/ha [2, 9] [%]	pest or weed control at 125 g/ha [2, 9] [%]	pest or weed control at 250 g/ha [2, 10] [%]	pest or weed control at 500 g/ha [2, 10] [%]	pest or weed control at 62 g/ha [3, 13] [%]	pest or weed control at 125 g/ha [3, 13] [%]	pest or weed control at 250 g/ha [3, 14] [%]	pest or weed control at 500 g/ha [3, 14] [%]	pest or weed control at 62 g/ha (kochia (Kochia scoparia); [17]) [%]	pest or weed control at 125 g/ha (kochia (Kochia scoparia); [17]) [%]	pest or weed control at 250 g/ha (kochia (Kochia scoparia); [18]) [%]	pest or weed control at 500 g/ha (kochia (Kochia scoparia); [18]) [%]	pest or weed control at 62 g/ha [4, 21] [%]	pest or weed control at 125 g/ha [4, 21] [%]	pest or weed control at 250 g/ha [4, 22] [%]	pest or weed control at 500 g/ha [4, 22] [%]	also measured
CCOC(=O)c1nc(C2CC2)nc(N)c1Cl [Compound 4, ethyl 6-amino-5-chloro-2-cyclopropyl-4-pyrimidinecarboxylate]	85	100	100	100	70	75	75	80	70	80	95	95	100	100	100	100	100	100	100	100	pest or weed control at 62 g/ha [1, 7]: 80%; pest or weed control at 125 g/ha [1, 8]: 95%; pest or weed control at 250 g/ha [1, 8]: 100%; pest or weed control at 500 g/ha [1, 8]: 100%; pest or weed control at 62 g/ha [2, 11]: 40%; pest or weed control at 125 g/ha [2, 12]: 65%; pest or weed control at 250 g/ha [2, 12]: 85%; pest or weed control at 500 g/ha [2, 12]: 95%; pest or weed control at 62 g/ha [3, 15]: 50%; pest or weed control at 125 g/ha [3, 16]: 70%; pest or weed control at 250 g/ha [3, 16]: 90%; pest or weed control at 500 g/ha [3, 16]: 95%; pest or weed control at 62 g/ha (kochia (Kochia scoparia); [19]): 95%; pest or weed control at 125 g/ha (kochia (Kochia scoparia); [20]): 100%; pest or weed control at 250 g/ha (kochia (Kochia scoparia); [20]): 100%; pest or weed control at 500 g/ha (kochia (Kochia scoparia); [20]): 100%; pest or weed control at 62 g/ha [4, 23]: 95%; pest or weed control at 125 g/ha [4, 24]: 100%; pest or weed control at 250 g/ha [4, 24]: 100%; pest or weed control at 500 g/ha [4, 24]: 100%
CNc1nc(C2CC2)nc(C(=O)OC)c1Br [Compound 5]	80	95	100	100	40	50	70	80	0	40	45	45	100	100	100	100	85	90	90	100	pest or weed control at 62 g/ha [1, 7]: 10%; pest or weed control at 125 g/ha [1, 8]: 90%; pest or weed control at 250 g/ha [1, 8]: 100%; pest or weed control at 500 g/ha [1, 8]: 100%; pest or weed control at 62 g/ha [2, 11]: 0%; pest or weed control at 125 g/ha [2, 12]: 0%; pest or weed control at 250 g/ha [2, 12]: 20%; pest or weed control at 500 g/ha [2, 12]: 60%; pest or weed control at 62 g/ha [3, 15]: 5%; pest or weed control at 125 g/ha [3, 16]: 20%; pest or weed control at 250 g/ha [3, 16]: 60%; pest or weed control at 500 g/ha [3, 16]: 70%; pest or weed control at 62 g/ha (kochia (Kochia scoparia); [19]): 80%; pest or weed control at 125 g/ha (kochia (Kochia scoparia); [20]): 95%; pest or weed control at 250 g/ha (kochia (Kochia scoparia); [20]): 100%; pest or weed control at 500 g/ha (kochia (Kochia scoparia); [20]): 100%; pest or weed control at 62 g/ha [4, 23]: 60%; pest or weed control at 125 g/ha [4, 24]: 90%; pest or weed control at 250 g/ha [4, 24]: 100%; pest or weed control at 500 g/ha [4, 24]: 100%
COC(=O)c1nc(C2CC2)nc(N)c1I [Compound 7]	30	30	30	30	0	0	5	25	0	0	0	0	40	65	70	80	20	40	40	55	–
